Assay results: PMC10021052, “Novel multivalent S100A8 inhibitory peptides attenuate tumor progression and metastasis by inhibiting the TLR4-dependent pathway” (Cancer Gene Therapy, 2023)
“Also recorded” adds a separate entry of the source.

Legend:
S100A8-TLR4/MD-2 complex = assay: Competitive inhibition of S100A8-TLR4/MD-2 binding (ELISA, S100A8 immobilized; also immunoprecipitation); design: species or system human; settings: ELISA, peptide3A5 vs peptide #3 (Fig. 3B); divalent vs monomer (Fig. 4A)
Protocol: S100A8 recombinant protein was purified as previously described. These proteins were immobilized on Maxisorp plates (Thermo Fisher Scientific, Waltham, MA, USA), followed by blocking with protein-free blocking buffer (Thermo Fisher Scientific). TLR4/MD-2 recombinant proteins with various concentrations of candidate peptides were then added to the indicated S100A8-immobilized ELISA plates for 2 h. The plates were washed, incubated with anti-TLR4 antibody, and HRP-conjugated secondary antibody, followed by the addition of substrate. The reaction was stopped by addition a 2N H2SO4 solution. Absorbance OD450/OD650 was measured using a microplate reader (Thermo Fisher Scientific). Maxisorp plates were also used for peptide coating. After blocking with protein-free blocking buffer, the coated plates were washed, and TLR4/MD-2 recombinant protein (2 µg/ml) was added to each well. The plates were incubated with a TLR4 antibody followed by horseradish peroxidase (HRP)-labeled anti-rabbit IgG. For detection of IL8 and VEGF in culture supernatants, SW480 cells were pretreated with the indicated peptides, and followed by stimulation with S100A8 for 24 h. The amount of interleukin-8 (IL-8) or VEGF in the supernatants were analyzed by ELISA kits (R&D Systems, Mineapolis, MN) according to the manufacturer’s instructions.
Fig. 2 Identification of S100A8 binding sites to human TLR4/MD-2. […] TLR4/MD-2 recombinant proteins were immobilized to the ELISA plate. After blocking, a full length or deletion mutant of S100A8 was added to the plate. The more detailed methods are described in Materials and Methods. […] B A series of overlapping S100A8 synthetic peptides. The TLR4/MD-2 recombinant proteins were added to each well of peptide immobilized plates. The affinity to TLR4/MD-2 was determined. Data are shown as mean ± SD. C The competitive activity was determined using ELISA. Data are shown as mean ± SD. D The TLR4/MD-2 was mixed with S100A8 with/without the indicated peptides, and immunoprecipitated using an anti-TLR4 antibody. TLR4 or S100A8 was visualized. Similar results were obtained in three independent experiments. […] Total RNAs from SW480 cells with/without treatment of the peptide candidates were extracted and qPCR analysis was performed using relevant primer sets and SYBR green. Relative expression levels were compared. […] TEXT PRINTED IN THE PICTURE: (A) Full length: TLR4/MD-2 binding: + | (A) S100A8-ΔC: TLR4/MD-2 binding: − | (A) S100A8-N: TLR4/MD-2 binding: −
Fig. 4 Improvement of competitive inhibition activity by divalent peptide3A5. A The binding capacity was measured at the indicated concentration using an ELISA-based assay. Similar results were obtained in three independent experiments. B SW480 cells were pretreated with 2.5 µM of divalent peptide3A5, and then stimulated with human S100A8 recombinant protein. After 30 min, cell lysates were subjected to western blotting using the indicated antibody. The divalent peptide#3 or peptide3A5 reduced the expression of S100A8-mediated IL-8 (C) and VEGF (D) induction. Total RNAs from SW480 cells with/without treatment of the peptide candidates were extracted and qPCR analysis was performed using relevant primer sets and SYBR green. Relative expression levels were compared. Peptide #3 suppresses S100A8-mediated IL-8(E) and VEGF (F) secretion in SW480 cells.

SW480 cells = assay: qPCR, S100A8-mediated IL-8 and VEGF mRNA induction in SW480 cells; format: cell-based, human; settings: qPCR, normalized to β-actin
C57BL6 mice = assay: Toxicity in C57BL6 mice; format: in vivo, mouse; settings: Supplementary Table 1
Text: Because S100A8 inhibitory peptides target S100A8-TLR4/MD-2, which plays a role in innate immunity, the complete functional activities of S100A8 inhibitory peptides are expected to be observed in immunocompetent models. To date, syngeneic models are one of the only options to test physiological interactions between tumors and immune cells. […] LLC cells were identified as non-responders to anti-PD-1/programmed death-ligand 1 (PD-L1) therapy. […] We then examined the effect of divalent peptide3A5 in mouse MC38 colorectal cancer cells used as anti-PD-1 responder cells. We previously confirmed that MC38 endogenously expressed TLR4/MD-2 [8].

MDSCs = MDSCs in LLC tumor-bearing mice; format: in vivo, C57BL/6J mice; settings: peripheral blood of LLC-tumor-bearing mice; *P < 0.05 vs control
LLC tumor = assay: Tumor growth in LLC tumor-bearing mice; settings: *P < 0.05 vs control; for LLC tumor growth, monotherapy: 10 mg/kg i.p. every 3 days, five mice per group
Text: Balb nu/nu or C57BL/6J mice were purchased from Clea Japan Inc. (Tokyo, Japan). Mice were used for experiments at 2–3 months of age. For SW480 transplanted xenograft model, SW480 cells were subcutaneously implanted into male Balb nu/nu mice. […] For generation of the Lewis lung cancer implantation mouse model, LLC cells were subcutaneously implanted into male C57BL/6J mice. […] Anti-PD-1 antibodies (Biolegend, San Diego, CA, USA) were used for combination therapy. To determine the tumor volume, the longitudinal diameter (length) and transverse diameter (width) were determined. Tumor volume based on measurements by Vernier calipers was calculated as tumor volume = ½ (length × width^2). For in vivo S100A8 stimulation, C57BL/6J mice were intravenously injected with mammalian-derived S100A8. Four hours after the i.v. injection, mice were sacrificed, and minced mouse lungs were digested with collagenase/dispase/DNase solution. Collected cells were incubated with anti-CD11b-PE (BD Bioscience), anti-Ly6G-FITC (BD Bioscience), and anti-Ly6C-APC (BD Bioscience) antibodies, and analyzed by a flow cytometry (Cytomics FC500; Beckman Coulter, Brea, CA, USA). […] After 24 h, PKH26 (Sigma-Aldrich)-fluorescent-labeled LLC cells were intravenously injected into TCM-stimulated C57BL6J mice. The mice were sacrificed after 16 h, and minced mouse lungs were digested with collagenase/dispase/DNase solution. The recruitment of MDSCs or PKH-26 labeled tumor cells in the lungs was determined by flow cytometry (CytoFlex; Beckman Coulter).
Briefly, LLC cells were implanted s.c. into C57BL/6 J mice. […] Tumor volumes for individual mice were determined at the indicated time points. Each group included five mice. […] Tumor size was determined at the indicated time points. […] Each group included 5–6 mice. The mice were administered tumor conditioned medium once daily for five consecutive days. […] The PKH-26 labeled LLC tumor cells were injected intravenously, the mice were sacrificed, and the cell number was analyzed after 16 h. Each group included 5–6 mice.

FQEFAILVIK [Divalent peptide3A5]
competitive inhibition, potency compared with parent (S100A8-TLR4/MD-2 complex): observed at a lower dose range than the effect of the peptide3A5 monomer
S100A8-mediated VEGF induction (mRNA) (SW480 cells): efficiently inhibited
S100A8-mediated IL-8 induction (mRNA) (SW480 cells; *P < 0.05 vs S100A8): efficiently inhibited
toxicity in C57BL6 mice (C57BL6 mice): did not display any toxicity
MDSC cell number (MDSCs): reduced the cell population of MDSCs; also recorded: reduces cell number of MDSCs in peripheral blood
LLC tumor growth, monotherapy (LLC tumor): suppresses tumor progression
LLC tumor growth, monotherapy (LLC tumor; listed as divalent peptide3A5): inhibited in vivo tumor growth; also recorded: suppressed tumor growth in tumor-bearing mice
LLC tumor, combination with anti-PD-1 antibody (LLC tumor; with anti-PD-1 every 3 days, 5–6 mice per group): improved the efficacy of anti-programmed death (PD)1 antibody; also recorded: increased the efficacy of anti-PD-1 therapy
